Results published in US7741341B2, “Benzimidazole-derivatives as factor Xa inhibitors” (sanofi-aventis Deutschland GmbH, priority 2003, dated 2010).

What follows are molecules tested against T1, human factor Xa (Homo sapiens, UniProt P00742) (assay: Factor Xa assay (chromogenic, substrate S-2765)). Conditions: read-out: Ki(FXa).
T1 construct: human factor Xa (Enzyme Research Laboratories, Inc; South Bend, Ind.); purchased Enzyme Research Laboratories, Inc; South Bend, Ind
Type: biochemical
Protocol: Purified enzymes were used in chromogenic assays.
The IC50 was determined by combining in appropriate wells of a Costar half-area microtiter plate 25 μl human factor Xa (Enzyme Research Laboratories, Inc.; South Bend, Ind.) in TBS-PEG; 40 μl 10% (v/v) DMSO in TBS-PEG (uninhibited control) or various concentrations of the compound to be tested diluted in 10% (v/v) DMSO in TBS-PEG; and substrate S-2765 (N(α)-benzyloxycarbonyl-D-Arg-Gly-L-Arg-p-nitroanilide; Kabi Pharmacia, Inc.; Franklin, Ohio) in TBS-PEG.
The assay was performed by pre-incubating the compound of formula I plus enzyme for 10 min. Then the assay was initiated by adding substrate to obtain a final volume of 100 μl. […] The enzyme concentration was 0.5 nM and substrate concentration was 140 μM.

T1 sequence (P00742 235-488 limits assumed): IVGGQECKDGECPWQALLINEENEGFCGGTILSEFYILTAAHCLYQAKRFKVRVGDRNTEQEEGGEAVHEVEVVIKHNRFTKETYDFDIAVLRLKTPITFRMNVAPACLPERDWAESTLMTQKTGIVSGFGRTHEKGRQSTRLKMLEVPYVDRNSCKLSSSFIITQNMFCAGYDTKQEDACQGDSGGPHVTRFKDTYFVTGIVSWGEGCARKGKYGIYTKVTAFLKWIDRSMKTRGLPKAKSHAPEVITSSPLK
T1 sequence (P00742 41-179 partner limits assumed): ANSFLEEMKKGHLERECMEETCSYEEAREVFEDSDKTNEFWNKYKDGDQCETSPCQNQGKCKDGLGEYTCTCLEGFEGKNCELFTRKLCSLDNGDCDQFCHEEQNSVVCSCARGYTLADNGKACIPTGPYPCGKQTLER

Ki [nM] | Compound
35 | CC(OC(=O)OC1CCCCC1)OC(=O)c1ccc2c(c1)nc(C(=O)NC1CCN(C(C)C)CC1)n2CC(=O)Nc1ccc(Cl)cn1 (stereo not drawn) [Example 60, 1-[(5-Chloro-pyridin-2-ylcarbamoyl)-methyl]-2-(1-isopropyl-piperidin-4-ylcarbamoyl)-1H-benzoimidazole-5-carboxylic acid 1-cyclohexyloxycarbonyloxy-ethyl ester]
9 | CC(C)N1CCC(NC(=O)c2nc3c(C(=O)NCCO)cccc3n2CC(=O)Nc2ccc(Cl)cn2)CC1 [Example 30, 1-[(5-Chloro-pyridin-2-ylcarbamoyl)-methyl]-1H-benzoimidazole-2,4-dicarboxylic acid 4-[(2-hydroxy-ethyl)-amide] 2-[(1-isopropyl-piperidin-4-yl)-amide]]
11 | CC(C)N1CCC(NC(=O)c2nc3c(C(=O)O)cccc3n2CC(=O)Nc2ccc(Cl)cn2)CC1 [Example 16, 1-[(5-Chloro-pyridin-2-ylcarbamoyl)-methyl]-2-(1-isopropyl-piperidin-4-ylcarbamoyl)-1H-benzoimidazole-4-carboxylic acid]
19 | CC(C)N1CCC(NC(=O)c2nc3c(C(=O)N4CCOCC4)cccc3n2CC(=O)Nc2ccc(Cl)cn2)CC1 [Example 73, 1-[(5-Chloro-pyridin-2-ylcarbamoyl)-methyl]-4-(morpholine-4-carbonyl)-1H-benzoimidazole-2-carboxylic acid (1-isopropyl-piperidin-4-yl)-amide]
31 | CC(C)N1CCC(NC(=O)c2nc3cc(C(=O)N4CC(O)C4)ccc3n2CC(=O)Nc2ccc(Cl)cn2)CC1 [Example 54, 1-[(5-Chloro-pyridin-2-ylcarbamoyl)-methyl]-5-(3-hydroxy-azetidine-1-carbonyl)-1H-benzoimidazole-2-carboxylic acid (1-isopropyl-piperidin-4-yl)-amide]
1.4 | CC(C)N1CCC(NC(=O)c2nc3ccccc3n2CC(=O)Nc2ccc(Cl)cn2)CC1 [Example 3, 1-[(5-Chloro-pyridin-2-ylcarbamoyl)-methyl]-1H-benzoimidazole-2-carboxylic acid (1-isopropyl-piperidin-4-yl)-amide]
2390 | CC(C)N1CCC(NC(=O)c2nc3cccnc3n2Cc2cc(-c3ccc(Cl)s3)on2)CC1 [Example 14, 3-[5-(5-Chloro-thiophen-2-yl)-isoxazol-3-ylmethyl]-3H-imidazo[4,5-b]pyridine-2-carboxylic acid (1-isopropyl-piperidin-4-yl)-amide]
52.5 | CC(C)N1CCC(NC(=O)c2nc3cc(C(=O)N4CCCOCC4)ccc3n2CC(=O)Nc2ccc(Cl)cn2)CC1 [Example 77, 1-[(5-Chloro-pyridin-2-ylcarbamoyl)-methyl]-5-([1,4]oxazepane-4-carbonyl)-1H-benzoimidazole-2-carboxylic acid (1-isopropyl-piperidin-4-yl)-amide]
22.5 | CC(C)N1CCC(NC(=O)c2nc3cc(C(=O)O)ccc3n2CC(=O)Nc2ccc(Cl)cn2)CC1 [Example 18, 1-[(5-Chloro-pyridin-2-ylcarbamoyl)-methyl]-2-(1-isopropyl-piperidin-4-ylcarbamoyl)-1H-benzoimidazole-5-carboxylic acid]
94 | CC(C)N1CCC(NC(=O)c2nc3cc(C(=O)O)ccc3n2Cc2cnc(-c3ccc(Cl)s3)s2)CC1 [Example 9, 1-[2-(5-Chloro-thiophen-2-yl)-thiazol-5-ylmethyl]-2-(1-isopropyl-piperidin-4-ylcarbamoyl)-1H-benzoimidazole-5-carboxylic acid]
10.5 | CC(C)N1CCC(NC(=O)c2nc3c(C(=O)N4CC(O)C4)cccc3n2CC(=O)Nc2ccc(Cl)cn2)CC1 [Example 32, 1-[(5-Chloro-pyridin-2-ylcarbamoyl)-methyl]-4-(3-hydroxy-azetidine-1-carbonyl)-1H-benzoimidazole-2-carboxylic acid (1-isopropyl-piperidin-4-yl)-amide]
41 | O=C(Cn1c(C(=O)Nc2ccc(N3CCOCC3=O)cc2)nc2ccccc21)Nc1ccc(Cl)cn1 [Example 35, 1-[(5-Chloro-pyridin-2-ylcarbamoyl)-methyl]-1H-benzoimidazole-2-carboxylic acid [4-(3-oxo-morpholin-4-yl)-phenyl]-amide]
3.5 | CC(C)N1CCC(NC(=O)c2nc3cc(C(=O)OCCO)ccc3n2Cc2cc(-c3ccc(Cl)s3)on2)CC1 [Example 78, 1-[5-(5-Chloro-thiophen-2-yl)-isoxazol-3-ylmethyl]-2-(1-isopropyl-piperidin-4-ylcarbamoyl)-1H-benzoimidazole-5-carboxylic acid 2-hydroxy-ethyl ester]
16.5 | CC(C)N1CCC(NC(=O)c2nc3ccc(C(=O)O)cc3n2Cc2cc(-c3ccc(Cl)s3)on2)CC1 [Example 7, 3-[5-(5-Chloro-thiophen-2-yl)-isoxazol-3-ylmethyl]-2-(1-isopropyl-piperidin-4-ylcarbamoyl)-3H-benzoimidazole-5-carboxylic acid]
40 | O=C(Cn1c(C(=O)Nc2ccc(N3CCOCC3=O)cc2)nc2c(C(=O)O)cccc21)Nc1ccc(Cl)cn1 [Example 53, 1-[(5-Chloro-pyridin-2-ylcarbamoyl)-methyl]-2-[4-(3-oxo-morpholin-4-yl)-phenylcarbamoyl]-1H-benzoimidazole-4-carboxylic acid]
14 | COCCOc1cccc2c1nc(C(=O)Nc1ccc(N3CCOCC3=O)cc1)n2CC(=O)Nc1ccc(Cl)cn1 [Example 52, 1-[(5-Chloro-pyridin-2-ylcarbamoyl)-methyl]-4-(2-methoxy-ethoxy)-1H-benzoimidazole-2-carboxylic acid [4-(3-oxo-morpholin-4-yl)-phenyl]-amide]
175 | COC(=O)c1ccc2nc(C(=O)NC3CCN(C(C)C)CC3)n(Cc3cc(-c4ccc(Cl)s4)on3)c2c1 [Example 5b, 3-[5-(5-Chloro-thiophen-2-yl)-isoxazol-3-ylmethyl]-2-(1-isopropyl-piperidin-4-ylcarbamoyl)-3H-benzoimidazole-5-carboxylic acid methyl ester]
3.1 | CC(C)N1CCC(NC(=O)c2nc3ccccc3n2CC(=O)Nc2ccc(Cl)cc2)CC1 [Example 2, 1-[(4-Chloro-phenylcarbamoyl)-methyl]-1H-benzoimidazole-2-carboxylic acid (1-isopropyl-piperidin-4-yl)-amide]
11.5 | COC(=O)c1cccc2c1nc(C(=O)NC1CCN(C(C)C)CC1)n2CC(=O)Nc1ccc(Cl)cn1 [Example 15, 1-[(5-Chloro-pyridin-2-ylcarbamoyl)-methyl]-2-(1-isopropyl-piperidin-4-ylcarbamoyl)-1H-benzoimidazole-4-carboxylic acid methyl ester]
8 | CC(C)N1CCC(NC(=O)c2nc3c(C(=O)N4CC(O)C4)cccc3n2Cc2cc(-c3ccc(Cl)s3)on2)CC1 [Example 23, 1-[5-(5-Chloro-thiophen-2-yl)-isoxazol-3-ylmethyl]-4-(3-hydroxy-azetidine-1-carbonyl)-1H-benzoimidazole-2-carboxylic acid (1-isopropyl-piperidin-4-yl)-amide]
2.5 | CC(C)N1CCC(NC(=O)c2nc3c(C(=O)NCCO)scc3n2Cc2cc(-c3ccc(Cl)s3)on2)CC1 [Example 102, 3-[5-(5-Chloro-thiophen-2-yl)-isoxazol-3-ylmethyl]-3H-thieno[3,4-d]imidazole-2,6-dicarboxylic acid 6-[(2-hydroxy-ethyl)-amide]2-[(1-isopropyl-piperidin-4-yl)-amide]]
